Test results reported in US20220265676A1, “[…] DIBENZO[…] COMPOUNDS FOR USE IN THE THERAPY OF CDKL5 DISORDER” (Healx Limited, priority 2016, published 2022).

Key:
[1] = test system: AMPA receptor subunit GluR2; assay: CDKL5 gene silencing experiment, immunofluorescence of cell-surface expressed GluR2 in primary hippocampal cultures; format: cell-based, mouse; settings: 10 uM on alternate days from DIV11 to DIV18 (DIV11-13-15-17); CDKL5-silenced hippocampal neurons
[2] = test system: AMPA receptor subunit GluR2; assay: CDKL5 gene silencing experiment, Western blotting of GluR2 and GluR2 phospho-Ser880 in primary hippocampal cultures; format: cell-based, mouse; settings: CDKL5-silenced hippocampal neurons
Cdkl5 knockout mice = assay: Rotarod assessment of motor coordination in Cdkl5 knockout mice; format: in vivo
Source text: The generation of Cdkl5 knockout mice and rotarod assessment of motor coordination could be carried out following the method described in Wang, I. -T. J et al. (2012) PNAS 109: 21516-21521, as follows.

[3] = 10 uM on alternate days from DIV11 to DIV18 (DIV11-13-15-17)
[4] = 10 μM on alternate days from DIV15-18 (DIV15-17)

SMILES	effect of CDKL5 silencing on expression of GluR2 in terms of number of puncta (immunofluorescence) [1]	effect of CDKL5 silencing on expression of the AMPA receptor subunit GluR2 (Western blotting) [2, 3]	effect of CDKL5 silencing on phosphorylated GluR2 (phosphorylation at serine-880) (Western blotting) [2, 3]	effect of CDKL5 silencing on expression of the AMPA receptor subunit GluR2 (Western blotting) [2, 4]	effect of CDKL5 silencing on phosphorylated GluR2 (phosphorylation at serine-880) (Western blotting) [2, 4]	time spent on the rotarod before falling (Cdkl5 knockout mice; Cdkl5 knockout mice treated before onset of motor deficits, at 3 weeks of age, relative to untreated mice)	rotarod scores (motor coordination and balance) (Cdkl5 knockout mice; Cdkl5 knockout mice treated from 6 weeks of age for 4 weeks, after onset of motor deficits, versus vehicle)
CN1c2ccccc2C(NCCCCCCC(=O)O)c2ccc(Cl)cc2S1(=O)=O.O=S(=O)(O)O (stereo not drawn) [tianeptine sulphate]	reversed the effect of CDKL5 silencing	reversed the effect of CDKL5 silencing	reversed the effect of CDKL5 silencing				
CN1c2ccccc2C(NCCCCOCC(=O)O)c2ccc(Cl)cc2S1(=O)=O.Cl (stereo not drawn) [TIOX, 2-(4-((3-chloro-6-methyl-5,5-dioxido-6,11-dihydrodibenzo[c,f][1,2]thiazepin-11-yl)amino)butoxy)acetic acid, HCl salt]		reversed the effect of CDKL5 silencing	reversed the effect of CDKL5 silencing	reversed the effect of CDKL5 silencing	reversed the effect of CDKL5 silencing		
CN1c2ccccc2C(NCCCCCCC(=O)O)c2ccc(Cl)cc2S1(=O)=O (stereo not drawn) [Tianeptine, 7-[(3-chloro-6,1′-dihydro-6-methyl-dibenzo[c,f][1,2]thiazepin-11-yl)amino]heptanoic acid S,S-dioxide]						increase the time spent on the rotarod before falling	higher than scores for Cdkl5 knockout mice given vehicle but are below WT values
